Reference: patent US9605004B2, “Chemical compounds” (SYNGENTA LIMITED, priority 2013, dated 2017)

How the values were obtained:
[1] = tested on: a variety of test species; test: Post-emergence herbicidal activity (Example 8b, Table 3); format: in vivo; settings: application post-emergence, rate 1000 g/ha, evaluated after 13 days, scale 0-5; for Herbicidal damage score, ABUTH: Abutilon theophrasti; for Herbicidal damage score, ALOMY: Alopecurus myosuroides; for Herbicidal damage score, AMARE: Amaranthus retroflexus; for Herbicidal damage score, ECHCG: Echinochloa crus-galli; for Herbicidal damage score, SETFA: Setaria faberi; for Herbicidal damage score, ZEAMX: Zea mays
Procedure, shortened: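 Visual herbicidal injury (0 = no damage, 5 = plant killed) recorded 13 days post-treatment. Treatment consisted of a single spray onto emerged seedlings at day 8; conditions before and after were 24/16 °C, 14 h light, 65% humidity.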

[2] = tested on: a variety of test species; test: Pre-emergence herbicidal activity (Example 8a, Table 2); format: in vivo; set-up: key: 0 = no damage to plant, 5 = total damage to plant; settings: application pre-emergence, rate 1000 g/ha, evaluated after 13 days
Procedure, shortened: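 Damage rated 13 days post-treatment on a 0-5 scale, 5 meaning total plant damage. Pots were sprayed pre-emergence, one day after sowing, with an acetone/water-derived aqueous spray containing 0.5% Tween 20. Plants grew under 14 h light, 65% humidity, 24/16 °C, watered twice daily.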

SMILES	Herbicidal damage score, ABUTH [1]	Herbicidal damage score, ALOMY [1]	Herbicidal damage score, AMARE [1]	Herbicidal damage score, ECHCG [1]	Herbicidal damage score, SETFA [1]	Herbicidal damage score, ZEAMX [1]	Pre-emergence herbicidal activity, damage score ABUTH [2]	Pre-emergence herbicidal activity, damage score ALOMY [2]	Pre-emergence herbicidal activity, damage score AMARE [2]	Pre-emergence herbicidal activity, damage score ECHCG [2]	Pre-emergence herbicidal activity, damage score SETFA [2]	Pre-emergence herbicidal activity, damage score ZEAMX [2]
CC1=C(Cl)C(=O)N(c2cc3n(n2)CCSC3(C)C)C1O (stereo not drawn) [Compound G10]	5	5	5	5	5	4	5	3	5	5	4	4
CC1=C(Cl)C(=O)N(c2cc3n(n2)CCS(=O)(=O)C3(C)C)C1O (stereo not drawn) [Compound G11]	5	5	5	5	5	3	5	4	5	5	5	4
COC1=C(C)C(O)N(c2cc(C(C)(C)C)n(C)n2)C1=O (stereo not drawn) [Compound H1, 1-(5-tert-butyl-1-methyl-pyrazol-3-yl)-2-hydroxy-4-methoxy-3-methyl-2H-pyrrol-5-one]	5	5	5	5	5	4	5	4	5	5	5	4
COC1=C(C)C(O)N(c2cc(C(C)(C)C)n(C)n2)C1=O (stereo not drawn) [Compound H2]	–	–	–	–	–	4	–	4	–	–	–	4
COC1=C(C)C(O)N(c2nn(C)c(C(C)(C)C)c2C#N)C1=O (stereo not drawn) [Compound H3]	5	5	4	5	5	3	4	4	4	5	4	1
COC1=C(C)C(O)N(c2cc(C(F)(F)F)n(C)n2)C1=O (stereo not drawn) [Compound H4]	5	5	5	5	5	5	5	4	5	5	5	4
CC1=C(Br)C(=O)N(c2cc(C(C)(C)C)[nH]n2)C1O (stereo not drawn) [Compound I1]	5	4	5	5	5	5	5	4	5	5	4	3
CC1=C(Br)C(=O)N(c2cc(C(C)(C)C)n(C)n2)C1O (stereo not drawn) [Compound J1]	5	5	5	5	5	4	5	3	5	5	4	2
CC1=C(Br)C(=O)N(c2cc(C(C)(C)C)n(C)n2)C1O (stereo not drawn) [Compound J2]	5	5	5	5	5	4	5	3	5	5	4	2
CC(C)=CCc1cc(N2C(=O)C(Br)=C(C)C2O)nn1C (stereo not drawn) [Compound J3]	4	1	2	2	4	0	0	0	0	0	0	0
CC1=C(Br)C(=O)N(c2cc(C(F)(F)F)n(C)n2)C1O (stereo not drawn) [Compound J4]	5	5	5	5	5	5	5	4	5	4	5	4
CC1=C(Br)C(=O)N(c2nn(C)c(C(C)(C)C)c2C#N)C1O (stereo not drawn) [Compound L1]	5	5	5	5	5	3	5	4	5	5	5	3
CCC1=C(Br)C(=O)N(c2nn(C)c(C(C)(C)C)c2C#N)C1O (stereo not drawn) [Compound L2]	5	5	5	5	5	1	4	3	3	4	3	0
CCCC1=C(Br)C(=O)N(c2nn(C)c(C(C)(C)C)c2C#N)C1OC(=O)CC (stereo not drawn) [Compound L3]	5	4	4	5	5	2	4	3	3	4	3	2
CCCC1=C(Br)C(=O)N(c2nn(C)c(C(C)(C)C)c2C#N)C1O (stereo not drawn) [Compound L4]	5	5	5	5	5	2	4	4	3	5	4	2
CC1=C(Br)C(=O)N(c2cc3n(n2)CCC3(C)C)C1O (stereo not drawn) [Compound M1]	5	5	5	5	5	4	5	4	5	5	5	4
